Experimental data published in patent US11560372B2, “Heterocyclic compounds useful as modulators of acetylcholine receptors” (TAKEDA PHARMACEUTICAL COMPANY LIMITED, priority 2017, dated 2023).

Assays:
[1] = Mouse PK test (cassette dosing); type: in vivo; settings: male, ICR; for Tmax: mouse plasma, time to reach maximum plasma concentration, oral 1 mg/kg; for MRT / clearance: plasma, mouse, intravenous 0.1 mg/kg; for MRT: mean residence time; for clearance: total clearance, read-out: CL total (converted)
Protocol: As the mouse, 8-week-old male ICR mice (Japan SLC, Inc.) were used. They were fed on a solid commercially available diet (CE-2, CLEA Japan, Inc.) and allowed to freely ingest tap water as the drinking water. An intravenous administration solution for the mice was prepared by weighing a test compound, dissolving same in dimethylacetamide (DMA) (Wako Pure Chemical Industries, Ltd.), adding the same volume of 1,3-butanediol (Wako Pure Chemical Industries, Ltd.) and mixing by stirring to give a DMA:1,3-butanediol (1:1, v/v) solution. An oral administration solution was prepared by weighing a test compound, pulverizing same in an agate mortar, and gradually adding 0.5 w/v % aqueous methylcellulose solution to give a suspension. For intravenous administration, the solution was administered into femoral vein of the mice at 0.1 mg/mL/kg (salt converted to free form). For oral administration, the suspension was administered to the mice at 1 mg/5 mL/kg (salt converted to free form). The cassette dosing method was used for the both administration routes, and the test compound was administered in the following manner.
In the case of intravenous administration, blood samples were collected from the tail vein at 5, 10, 15, 30 min, 1, 2, 4, 8 hr after administration, an anticoagulation treatment with heparin sodium (Shimizu Pharmaceutical Co., Ltd.) was performed, and plasma was collected after centrifugation and subjected to the measurement of drug concentration. In the case of oral administration, blood samples were collected from the tail vein at 15, 30 min, 1, 2, 4, 8 hr after administration, an anticoagulation treatment with heparin sodium was performed, and plasma was collected after centrifugation and subjected to the measurement of drug concentration.
All drug concentrations were measured by LC-MS/MS analysis. For a pharmacokinetics test, the plasma (5 μL) was placed in a tube, acetonitrile (115 μL) containing internal standard solution was added and they were mixed on a vortex mixer. Thereafter, the mixture was centrifuged (5000 rpm, 5 min, 4° C.). The supernatant (100 μL) after centrifugation was added to 10 mmol/L ammonium formate (100 μL) added earlier and mixed therewith. This sample was injected to LC/MS/MS. […] MS/MS used was AB Sciex TQ5500-MPX (Applied Biosystems).
Tmax: time to reach maximum plasma concentration
iv: intravenous administration
CL total: total clearance

Male SD rats = assay: Rat defecation experiment; type: in vivo; settings: mean±standard error
Protocol: Rat Defecation Experiment
Male SD rats (5-6 weeks old) were used after an acclimation period for about 1 week. A test drug (1 mg/kg, 3 mg/kg, or 10 mg/kg) was suspended in 0.5% methylcellulose solution and orally administered at a volume of 5 mL/kg, and the number of feces 2 hr later was counted. Only 0.5% methylcellulose was administered to a solvent administration group.

SMILES	Tmax [1]	MRT [1]	clearance [1]	number of feces 2 hr later (Male SD rats; 1 mg/kg orally)	number of feces 2 hr later (Male SD rats; 3 mg/kg orally)	number of feces 2 hr later (Male SD rats; 10 mg/kg orally)
Cc1c(Cc2ccc(-c3cn(C)nn3)nc2)cc2c(=O)n([C@H]3CCOC[C@@H]3O)cnc2c1C [Example 2, 1,5-anhydro-2,3-dideoxy-3-(7,8-dimethyl-6-((6-(1-methyl-1H-1,2,3-triazol-4-yl)pyridin-3-yl)methyl)-4-oxoquinazolin-3(4H)-yl)-L-threo-pentitol]	1 h	1 h	10.9 mL/min/kg	–	–	–
CNC(=O)c1ccc(Cc2cc3c(=O)n([C@H]4CCOC[C@@H]4O)cnc3c(C)c2C)cc1F [Example 3, 1,5-anhydro-2,3-dideoxy-3-(6-(3-fluoro-4-(methylcarbamoyl)benzyl)-7,8-dimethyl-4-oxoquinazolin-3(4H)-yl)-L-threo-pentitol]	1.7 h	1.9 h	10.2 mL/min/kg	7.4 ± 0.7	7.8 ± 1.4	–
Cc1nn(C)cc1-c1ccc(Cc2cc3c(=O)n([C@H]4CCOC[C@@H]4O)cnc3c(C)c2C)cn1 [Example 5, 1,5-anhydro-2,3-dideoxy-3-(6-((6-(1,3-dimethyl-1H-pyrazol-4-yl)pyridin-3-yl)methyl)-7,8-dimethyl-4-oxoquinazolin-3(4H)-yl)-L-threo-pentitol]	0.7 h	1.2 h	7.45 mL/min/kg	–	–	–
Cc1c(Cc2ccc(-c3cnn(C)c3)nc2)cc2c(=O)n([C@H]3CCOC[C@@H]3O)cnc2c1C [Example 6, 1,5-anhydro-2,3-dideoxy-3-(7,8-dimethyl-6-((6-(1-methyl-1H-pyrazol-4-yl)pyridin-3-yl)methyl)-4-oxoquinazolin-3(4H)-yl)-L-threo-pentitol]	1.7 h	1.4 h	4.55 mL/min/kg	–	–	–
CNC(=O)c1ccc(Cc2cc3c(=O)n([C@H]4CCOC[C@@H]4O)nnc3c(Cl)c2C)cc1F [Example 19, 1,5-anhydro-3-(8-chloro-6-(3-fluoro-4-(methylcarbamoyl)benzyl)-7-methyl-4-oxo-1,2,3-benzotriazin-3(4H)-yl)-2,3-dideoxy-L-threo-pentitol]	1.7 h	2.5 h	4.57 mL/min/kg	–	–	–
COCCNC(=O)c1ccc(Cc2cc3c(=O)n([C@H]4CCOC[C@@H]4O)cnc3c(C)c2C)cc1F [Example 66, 1,5-anhydro-2,3-dideoxy-3-(6-(3-fluoro-4-((2-methoxyethyl)carbamoyl)benzyl)-7,8-dimethyl-4-oxoquinazolin-3(4H)-yl)-L-threo-pentitol]	0.7 h	0.8 h	26.6 mL/min/kg	9.9 ± 1.0	–	–
Cc1c(Cc2ccc(C(=O)NC[C@H]3CCCO3)c(F)c2)cc2c(=O)n([C@H]3CCOC[C@@H]3O)cnc2c1C [Example 81, 1,5-anhydro-2,3-dideoxy-3-(6-(3-fluoro-4-(((2R)-tetrahydrofuran-2-ylmethyl)carbamoyl)benzyl)-7,8-dimethyl-4-oxoquinazolin-3(4H)-yl)-L-threo-pentitol]	0.5 h	0.5 h	72.2 mL/min/kg	6.9 ± 1.1	7.0 ± 0.8	11.5 ± 1.1
